Data: ChEMBL document CHEMBL5230102, “Bicyclic polyprenylated acylphloroglucinols and their derivatives: structural modification, structure-activity relationship, biological activity and mechanism of action” (Eur J Med Chem, 2020)
Values after ≈ are worked out from the molar mass of the structure shown.

Experiments:
HeLa = assay: Cytotoxicity against human HeLa cells assessed as inhibition of cell growth; assay type: functional, cell-based
HCT-116 = assay: Cytotoxicity against human HCT-116 cells assessed as inhibition of cell growth; assay type: functional, cell-based
SGC-7901 = assay: Cytotoxicity against human SGC-7901 cells assessed as inhibition of cell growth; assay type: functional, cell-based
Staphylococcus aureus [1] = assay: Antibacterial activity against methicillin resistant Staphylococcus aureus USA300; assay type: functional
Plasmodium falciparum = assay: Antimalarial activity against Plasmodium falciparum; assay type: functional, organism-based
Staphylococcus aureus [2] = assay: Antibacterial activity against Staphylococcus aureus; assay type: functional, organism-based

SMILES	IC50 (HeLa)	IC50 (HCT-116)	IC50 (SGC-7901)	MIC (Staphylococcus aureus [1])	further results
CC(C)=CCC/C(C)=C/C[C@@H]1C[C@]2(C/C=C(\C)CCC=C(C)C)C(=O)[C@@](CC=C(C)C)(C(=O)C(C(=O)c3ccc(O)c(O)c3)=C2O)C1(C)C	8.09 µg/mL (≈ 12.1 µM)	4.92 µg/mL (≈ 7.33 µM)	4.05 µg/mL (≈ 6.04 µM)	–	–
C=C(C)[C@H](CC=C(C)C)C[C@]12C[C@H](CC=C(C)C)C(C)(C)[C@](CC=C(C)C)(C(=O)C(C(=O)c3ccc(O)c(O)c3)=C1O)C2=O	–	–	–	7 µg/mL (≈ 11.6 µM)	–
CC(C)=CC[C@@H]1C[C@]23C[C@@H](CC=C(C)C)C(C)(C)[C@](CC=C(C)C)(C(=O)C(C(=O)c4ccc(O)c(O)c4)=C2OC1(C)C)C3=O	–	–	–	> 30 µg/mL	–
CC(C)=CCC/C(C)=C/C[C@]12C[C@@H](CC=C(C)C)C(C)(C)[C@](CC=C(C)C)(C(=O)C(C(=O)c3ccc(O)c(O)c3)=C1O)C2=O	11.7 µg/mL (≈ 19.4 µM)	8.6 µg/mL (≈ 14.3 µM)	5.48 µg/mL (≈ 9.09 µM)	–	–
CC(C)=CC[C@@H]1C[C@]2(CC=C(C)C)C(=O)[C@@](CC=C(C)C)(C(=O)C(C(=O)c3ccccc3)=C2O)C1(C)C	12 µg/mL (≈ 23.8 µM)	6.87 µg/mL (≈ 13.7 µM)	12 µg/mL (≈ 23.8 µM)	–	–
CC1(C)[C@H](Cc2ccccc2)C[C@@]2(Cc3ccccc3)C(=O)[C@]1(C)C(=O)C(C(=O)c1ccccc1)=C2O	–	–	–	> 30 µg/mL	–
CC(=O)C1=C(O)[C@@]2(CC=C(C)C)C[C@@H](CC=C(C)C)C(C)(C)[C@@](CC=C(C)C)(C1=O)C2=O	–	–	–	1 µg/mL (≈ 2.27 µM)	–
C=CC[C@@]12C[C@@H](CC=C(C)C)C(C)(C)[C@@](CC=C)(C(=O)C(C(C)=O)=C1O)C2=O	–	–	–	2 µg/mL (≈ 5.2 µM)	–
C=CC[C@@]12C(=O)C(C(=O)c3ccccc3)=C(O)[C@@](Cc3ccccc3)(C[C@@H](CC=C(C)C)C1(C)C)C2=O	–	–	–	4 µg/mL (≈ 8.05 µM)	–
CC(C)=CCC/C(C)=C/C[C@]12C(=O)CC(=O)[C@](CC=C(C)C)(C[C@@H](CC=C(C)C)C1(C)C)C2=O	11.7 µg/mL (≈ 25 µM)	10.9 µg/mL (≈ 23.4 µM)	8.5 µg/mL (≈ 18.2 µM)	–	–
CC(C)=CCC(=O)C1=C(O)[C@@]2(C)C[C@@H](CC=C(C)C)C(C)(C)[C@@](CC=C(C)C)(C1=O)C2=O	–	–	–	4 µg/mL (≈ 9.08 µM)	–
CC(C)=CC[C@@]12C[C@@H](Cc3ccccc3)C(C)(C)[C@@](C)(C(=O)C(C(=O)c3ccccc3)=C1O)C2=O	–	–	–	> 30 µg/mL	–
CC(C)=CC[C@@]12C[C@@H](Cc3ccccc3)C(C)(C)[C@@](CC=C(C)C)(C(=O)C(C(=O)c3ccccc3)=C1O)C2=O	–	–	–	4 µg/mL (≈ 7.62 µM)	–
C=CC[C@@]12C[C@@H](CC=C(C)C)C(C)(C)[C@@](CC=C)(C(=O)C(C(=O)C(C)C)=C1O)C2=O	–	–	–	2 µg/mL (≈ 4.85 µM)	–
CC(C)=CCC/C(C)=C/C[C@]12C[C@@H](CC=C(C)C)C(C)(C)[C@](C/C=C(\C)CCC=C(C)C)(C(=O)CC1=O)C2=O	> 20 µg/mL	> 20 µg/mL	> 20 µg/mL	–	–
C=CC[C@@]12C(=O)C(C(=O)C(C)C)=C(O)[C@@](Cc3ccccc3)(C[C@@H](CC=C(C)C)C1(C)C)C2=O	–	–	–	1 µg/mL (≈ 2.16 µM)	–
C=CC[C@@]12C(=O)C(C(C)=O)=C(O)[C@@](Cc3ccccc3)(C[C@@H](CC=C(C)C)C1(C)C)C2=O	–	–	–	1 µg/mL (≈ 2.3 µM)	–

SMILES	IC50 (HeLa)	IC50 (HCT-116)	IC50 (SGC-7901)	MIC (Staphylococcus aureus [1])	further results
CC(C)=CC[C@@H]1C[C@@]2(Cc3ccccc3)C(=O)[C@](C)(C(=O)C(C(=O)c3ccccc3)=C2O)C1(C)C	–	–	–	> 30 µg/mL	–
CC(C)=CC[C@@]12C(=O)C(C(=O)c3ccccc3)=C(O)[C@@](Cc3ccccc3)(C[C@@H](Cc3ccccc3)C1(C)C)C2=O	–	–	–	4 µg/mL (≈ 7.32 µM)	–
CC(=O)C1=C(O)[C@@]2(Cc3ccccc3)C[C@@H](CC=C(C)C)C(C)(C)[C@@](CC=C(C)C)(C1=O)C2=O	–	–	–	0.5 µg/mL (≈ 1.08 µM)	–
CC(C)=CCC/C(C)=C/C[C@@H]1C[C@@]2(CC=C(C)C)C(=O)CC(=O)[C@](CC=C(C)C)(C2=O)C1(C)C	9.69 µg/mL (≈ 20.8 µM)	9.14 µg/mL (≈ 19.6 µM)	6.89 µg/mL (≈ 14.8 µM)	–	–
CC(C)=CCC/C(C)=C/C[C@]12C[C@@H](CC=C(C)C)C(C)(C)[C@](CC=C(C)C)(C(=O)CC1=O)C2=O	6.64 µg/mL (≈ 14.2 µM)	6.46 µg/mL (≈ 13.8 µM)	5.6 µg/mL (≈ 12 µM)	–	–
CC(C)=CC[C@@H]1C[C@@]2(CC=C(C)C)C(=O)[C@](CC=C(C)C)(C(=O)C(C(=O)C(C)C)=C2O)C1(C)C	–	–	–	2 µg/mL (≈ 4.27 µM)	–
CC(C)=CC[C@H]1C[C@@]2(CC=C(C)C)C(=O)c3c(oc4cc(O)c(O)cc4c3=O)[C@](CC=C(C)C)(C2=O)C1(C)C	7.65 µg/mL (≈ 14.4 µM)	5.96 µg/mL (≈ 11.2 µM)	7.65 µg/mL (≈ 14.4 µM)	–	–
CC(C)=CC[C@@H]1C[C@@]2(Cc3ccccc3)C(=O)[C@](CC=C(C)C)(C(=O)C(C(=O)c3ccccc3)=C2O)C1(C)C	–	–	–	1 µg/mL (≈ 1.91 µM)	–
CC(C)=CCC(=O)C1=C(O)[C@@]2(Cc3ccccc3)C[C@@H](CC=C(C)C)C(C)(C)[C@@](CC=C(C)C)(C1=O)C2=O	–	–	–	2 µg/mL (≈ 3.87 µM)	–
CC(C)=CCC/C(C)=C/C[C@@H]1C[C@@]2(C/C=C(\C)CCC=C(C)C)C(=O)CC(=O)[C@](CC=C(C)C)(C2=O)C1(C)C	> 20 µg/mL	> 20 µg/mL	> 20 µg/mL	–	–
CC(C)=CCC1=C(O)[C@@]2(C(=O)c3ccccc3)C(=O)[C@](CC=C(C)C)(C[C@H](CC=C(C)C)C2(C)C)C1=O	–	–	–	–	IC50 (Plasmodium falciparum): < 1 µM; IC50 (Staphylococcus aureus [2]): < 1 µM
CC(C)=CC[C@H]1C[C@@]2(CC=C(C)C)C(=O)c3c(oc4c(O)c(O)ccc4c3=O)[C@](CC=C(C)C)(C2=O)C1(C)C	4.69 µg/mL (≈ 8.8 µM)	2.44 µg/mL (≈ 4.58 µM)	4.69 µg/mL (≈ 8.8 µM)	–	–
CC(C)=CC[C@@H]1C[C@@]2(CC=C(C)C)C(=O)[C@](C)(C(=O)C(C(=O)c3ccccc3)=C2O)C1(C)C	–	–	–	> 30 µg/mL	–
CC(C)=CC[C@@H]1C[C@]2(CC=C(C)C)C(=O)C(C(=O)c3ccccc3)=C3O[C@H](C(C)(C)O)C[C@]3(C2=O)C1(C)C	–	–	–	4 µg/mL (≈ 7.71 µM)	–
CC(C)=CC[C@@H]1C[C@@]2(CC=C(C)C)C(=O)[C@](CC=C(C)C)(C(=O)C(C(=O)c3ccccc3)=C2O)C1(C)C [CLUSIANONE]	–	–	–	1 µg/mL (≈ 1.99 µM)	–
CC(C)=CCC/C(C)=C/C[C@]12C[C@@H](CC=C(C)C)C(C)(C)[C@](C/C=C(\C)CCC=C(C)C)(C(=O)C(C(=O)c3ccc(O)c(O)c3)=C1O)C2=O [GUTTIFERONE O]	> 20 µg/mL	> 20 µg/mL	> 20 µg/mL	–	–
CC(C)=CCC/C(C)=C/C[C@@H]1C[C@]2(CC=C(C)C)C(=O)[C@@](CC=C(C)C)(C(=O)C(C(=O)c3ccc(O)c(O)c3)=C2O)C1(C)C [OBLONGIFOLIN B]	> 20 µg/mL	> 20 µg/mL	> 20 µg/mL	–	–
